Experimental data from patent US20090325992A1, “COMPOUND HAVING CYCLIC GROUP BOUND THERETO THROUGH SPIRO BINDING AND USE THEREOF” (ONO PHARMACEUTICAL CO., LTD., priority 2006, published 2009).

What was measured:
[1] = molecular target: T1, CXCR4 (human T cell strain CEM cells) (Homo sapiens, UniProt P61073); experiment: Inhibition of binding human SDF-1 to CEM cells (125I-SDF-1); settings: 4° C., 60 minutes
T1 construct: a human T cell strain in which CXCR4 is known to be expressed; endogenous in cells; host or cells: CEM cells (human T cell strain)
T1 sequence (P61073 whole entry): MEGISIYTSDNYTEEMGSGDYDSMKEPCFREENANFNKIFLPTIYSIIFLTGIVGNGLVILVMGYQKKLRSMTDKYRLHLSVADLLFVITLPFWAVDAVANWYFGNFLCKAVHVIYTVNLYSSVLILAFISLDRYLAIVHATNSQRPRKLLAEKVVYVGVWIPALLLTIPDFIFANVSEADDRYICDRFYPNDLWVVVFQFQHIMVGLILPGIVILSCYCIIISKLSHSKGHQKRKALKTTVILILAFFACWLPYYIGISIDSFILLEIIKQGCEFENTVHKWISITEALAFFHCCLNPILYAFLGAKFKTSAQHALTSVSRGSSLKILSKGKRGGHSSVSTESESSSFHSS
Procedure: Specifically, as a system of screening a compound that inhibits the binding between SDF-1 and CXCR4, for example a system of measuring the binding between iodine-labeled SDF-1 and a human T cell strain in which CXCR4 is known to be expressed is operable.
Study for Inhibition of Binding Human SDF-1 to CEM Cells
To human T cell strain CEM cells in a binding buffer (containing HEPES and BSA), the test compound and ^125I-SDF-1 (PerkinElmer) were added and the mixture was incubated at 4° C. for 60 minutes. The reacted CEM cells were rapidly filtrated with a GF/B membrane filter plate (Packard) to adsorb. The plate was washed with phosphate buffered saline (hereinafter abbreviated to PBS) three times and then dried. Microscint+20 (Packard) was added thereto. An amount of the radioactivity bound to the CEM cells was measured using Top Count (Packard) and inhibition (%) of the test compound was calculated according to the following equation:
Inhibition={(Et−Ea)/(Et−Ec)}×100 [Equation 1]
Et: Amount of radioactivity when the test compound is not added,
Ec: Amount of radioactivity when non-radioactive SDF-1 (Pepro Tech) is added in an amount of 1,000 times as much as ^125I-SDF-1 as a test compound, and
Ea: Amount of radioactivity when the test compound is added.

[2] = Artificial lipid membrane binding using Biacore S51 system; settings: for Value of binding response (RU): DOPA liposome, 50 μM compound, PBS/5% DMSO pH 7.4, 37° C., corrected value; for Determination (artificial lipid membrane binding): positive = corrected binding response 150 or more
Procedure: Artificial Lipid Membrane Binding Account by using Biacore® S51 System
10 mM of 1,2-dioleoyl-sn-glycero-3-phosphate monosodium salt (hereinafter abbreviated as DOPA) chloroform solution was evaporated to dryness by means of an aspirator, and 0.6 mL of PBS/5% dimethyl sulfoxide (hereinafter abbreviated as DMSO) was added. The chloroform solution was fully suspended by means of a vortex mixer, and the freezing and thawing were repeated for 5 times. Liposome was created by means of a liposome preparation instrument (manufactured by Avestin Inc.) and two syringes, and was diluted to 0.5 mM with PBS/5% DMSO just prior to immobilization.
(2) Measurement Compound Preparation
38 μl of 1×PBS is added to 2 μl of a DMSO solution (10 mM), and further the 360 μl of 1×PBS/5% DMSO was added and the 50 μM of final concentration in PBS/5% DMSO was prepared and measured.
All of the following analysis used Biacore® S51 system and the measurement conditions were set by Biacore S51 Control Soft.
The measurement temperature was set to be 37° C., and PBS/5% DMSO (pH 7.4 or 6.0) was used as a buffer. Series S Sensor Chip L1 was used for a sensor chip. DOPA was immobilized in one of the measuring spots on the sensor surface and the central spot was used as a reference.
Immobilization of liposome was conducted at a flow rate of 10 μL/min for about 3 minutes and then the compound was added at a flow rate of 30 μL/min and the interaction was measured. The measurement conditions are as follows:
Assay buffer: PBS/5% DMSO (pH 7.4) Measurement temperature: 37° C. Sensor chip: Series S Sensor Chip L1 Flow rate: 10 μL/min at the time of the liposome immobilization; 30 μL/min at the time of the measurement of interaction with the compound Regeneration: 20 mM CHAPS (3-[(3-cholamidopropyl)dimethylammonio]-1-propanesulfonate), isopropylalcohol/aqueous 50 mM sodium hydroxide solution=40/60 (volume ratio) mixture solution (60 seconds)
The data processing was conducted by means of method of Abdiche et al., (Analytical biochemistry, 328, 233-243 (2004)) by using Biacore S51 Evaluation Soft.
Regarding the value of binding response (RU) in which the value of reference was subtracted, it was divided by a sample molecular weight after minute error of the DMSO concentration included in the sample solution was corrected. In addition, the value obtained here was divided by an amount of capture at the time of the cycle because the value obtained here was proportional to the amount of capture of the liposome and the value was multiplied by a million to be considered as a corrected value (Corrected value=1,000,000×RU (test compound)/molecular quantity (test compound) RU (liposome)).
The compound wherein a value of the binding response after the correction was 150 or more was determined as positive.

[3] = system: CHL/IU (cell line derived from a Chinese hamster lung); experiment: Phospholipidosis detecting system using fluorescent labeling phospholipid analog (NBD-PE); format: cell-based; settings: for Rate of increase of phospholipid accumulation (%) (compound dose: 200 μM): CHL/IU cells, compound dose 200 μM, about 48 hours, relative to NBD-PE control; for Determination (phospholipidosis, NBD-PE system): positive = 25% or more of the maximum increase rate of amiodarone
Procedure: Investigation with Phospholipidosis Detecting System using Fluorescent Labeling Phospholipidosis Analog under Severity Condition (1) Phospholipid Accumulation Measurement 100 μL/well as required (1 dose 2 wells) of cell suspension of CHL/IU (cell line derived from a Chinese hamster lung) (7×10^4 cells/mL) prepared by MEM (minimum essential medium) culture medium was added to a 96-well plate (96-well clear-bottom plate), and cultured for about 24 hours. After culture, the supernatant of the 96-well plate was removed, and the 100 μL/well compounds of each concentration dissolved and suspended in an MEM including 25 μmol/L nitrobenzoxadiazole dipalmitoyl phosphatidylethanolamine (NBD-PE) (hereinafter abbreviated as a NPD-PE medium) were added and treated for about 48 hours. The treatment concentrations of each compound were set to be 5, 50, 100 and 200 μM. The positive control substance was set to be amiodarone hydrochloride, and the treatment concentrations were set to be 1.25, 2.5, 5, 10 and 20 μM. In addition, 5-well untreated controls (only MEM) and 5-well NBD-PE controls (made by means of adding a 1/100 amount of DMSO to the NBD-PE culture medium) were set per compound, and cultured in the same manner. After finishing the culture, the cultures were washed twice with phosphate buffered saline (hereinafter abbreviated as PBS) (−) 100 μL/well, and the MEM (100 μL) was added to all of the treatment wells including two empty wells for WST-1 background controls and cultured for about a half hour. The fluorescence intensities of each well were measured by using a microplate reader (manufactured by Molecular Devices Inc., SPECTRA max M2; the excitation wavelength 485 nm/fluorescence wavelength 535 nm). (2) Analysis Using the average values of each dose×2 wells, a phospholipid increase rate (%) to the NBD-PE control was calculated by using the following calculating formula: Rate of increase of phospholipid accumulation (%)=100×{(test compound fluorescence intensity−non-treated control fluorescence intensity)/(NBD-PE control fluorescence intensity−non-treated control fluorescence intensity)} [Equation 2] (3) Cytotoxicity Assay 96-well plate measured in the phospholipid accumulation measurement was measured by means of Plate Reader (manufactured by Molecular Devices Inc., SPECTRA max M2) with the main wavelength of 450 nm and the correct wavelength of 690 nm to calculate a Pre value. An amount of 5 μL/well of Premix WS T-1 was added to each of the 96-hole plates by which Pre measurement was conducted. After culture for 2 to 4 hours, the 96-well plate was measured as well as the Pre measurement to calculate an Aft value. Then, the background control value was subtracted from the each measured value. A value which was calculated by subtracting the Pre value from the Aft value was used, then the cell growth rate (%) was calculated by using the following calculating formula: Cell growth rate (%)=100×[(test substance OD)/(NBD-PE control OD)] [Equation 3] (4) Determination A test dose that indicated value of 25% or more of the maximum phospholipid accumulation increase rate of amiodarone which was the positive control was determined as positive. In addition, the dose whose cell growth rate was equal to or less than 50% in the cytotoxicity assay was not used for determination of existence or nonexistence of a phospholipidosis inductive effect.

[4] = Measurement of maximum plasma level (Cmax) and stationary state distribution volume (Vss); settings: male, Crl:CD(SD), rat, iv, 1 mg/kg
Procedure: Measurement of Maximum Plasma Level (Cmax) and Stationary State Distribution Volume (Vss)
A compound to be evaluated is weighed, dissolved in WellSolve (trade name; manufactured by Celeste Corporation) which is heated to 60° C. and adjusted to 20 mg/mL; thereafter, the test compound is diluted by 10 times with distilled water for injection, and further diluted by 2 times with saline solution, by which intravenously administered solution is eventually made. A compound to be evaluated is dissolved in WellSolve which is heated to 60° C. and adjusted to 50 mg/mL; thereafter, the compound to be evaluated is diluted with distilled water for injection and adjusted to 1 mg/mL. Five compounds (one set) were mixed in the same amount and adjusted to final concentration of 0.2 mg/mL per one compound, by which orally administered solution is eventually made. […] The administration is conducted under fasting conditions; water is freely ingested. In the case of intravenous administration, a 0.35 mL of blood sample is taken from cervical vein by using Heparinized Syringe at 5 minutes, 15 minutes, 30 minutes, 1 hour, 2 hours, 4 hours, 6 hours, 8 hours, and 24 hours after administration. […] The obtained blood is stored in ice, and after centrifugation at 12,000 rpm for 3 minutes, blood plasma is fractionated. In the case of intravenous administration, the blood plasma sample preserved at a temperature of −80° C. is dissolved; inner standard solution (100 μL) and acetonitrile (2 mL) are added to the blood plasma sample (100 μL) and stirred, and the sample is centrifuged at 2,500 rpm for 10 minutes.
After the supernatant centrifuged is evaporated to dryness by means of a centrifugal concentrator, 67% dimethyl sulfoxide solution (150 μL) is added to the residue and dissolves them again and 20 μL of the solution is analyzed by means of LC/MS/MS.
Measurement device: Waters 2795 (manufactured by Waters Corporation) Analytical column: Unison UK-C18, 3.0 μm particle size, 2.0 mm×30 mm (manufactured by Imtakt Corporation) Analytical column temperature: Room temperature Flow rate: 200 μL/min Moving bed: 5 mM IPC-PFAA-7 solution/acetonitrile (9/1→1/9)
Measurement device: Quatro micro API (manufactured by Micromass Communications Inc.) Scan type: MPM
The monitor ion which was suitable for each sample was selected.
A portion of the compound to be intravenously administered was subjected to the following treatment. The blood plasma sample preserved at a temperature of −80° C. is dissolved; inner standard solution (50 μL) and acetonitrile (1 mL) are added to the blood plasma sample (50 μL) and stirred, and the sample is centrifuged at 3,000 rpm for 10 minutes. After the supernatant is evaporated to dryness by means of a centrifugal concentrator, the residue was redissolved in water/acetonitrile (1/1) and the solution is analyzed by means of LC/MS/MS under the following conditions.
Measurement device: 1200 series system (manufactured by Agilent Technologies) Analytical column: Asahipak OOD-50 2D, 2×150 mm (manufactured by Showa Denko K.K.) Analytical column temperature: Room temperature Moving bed: 5 mM IPC—PFAA-7 solution/acetonitrile (gradient) Flow rate: 200 μL/min

Row | SMILES | IC50 [1] [nM] | Value of binding response (RU) [2] [RU] | Determination (artificial lipid membrane binding) [2] | Vd [4] [L/kg] | Rate of increase of phospholipid accumulation (%) (compound dose: 200 μM) [3] | Determination (phospholipidosis, NBD-PE system) [3]
1 | CCOC(=O)COc1cccc(CN(Cc2ncc[nH]2)Cc2nccn2CCCN2CCC3(CCN(C(CC)CC)CC3)C2)c1 [Example 42(1), Ethyl [3-({[(1-{3-[8-(1-ethylpropyl)-2,8-diazaspiro[4.5]deca-2-yl]propyl}-1H-imidazol-2-yl)methyl] (1H-imidazol-2-ylmethyl)amino}methyl)phenoxy]acetate] | ≤ 3 | – | – | – | – | –
2 | O=C(O)COc1cccc(CN(Cc2ncc[nH]2)Cc2nccn2CCCN2CCC3(CCN(C4CCCCC4)CC3)C2)c1 [Example 41(7), (3-{[({1-[3-(8-cyclohexyl-2,8-diazaspiro[4.5]deca-2-yl)propyl]-1H-imidazol-2-yl}methyl)(1H-imidazol-2-ylmethyl)amino]methyl}phenoxy)acetic acid] | 4.5 | 63.6 | Negative | – | 21 | Negative
3 | CCOC(=O)COc1cccc(CN(Cc2ncc[nH]2)Cc2nccn2CCCN2CCC3(CCN(C4CCCCC4)CC3)C2)c1 [Example 40(13), Ethyl (3-{[({1-[3-(8-cyclohexyl-2,8-diazaspiro[4.5]deca-2-yl)propyl]-1H-imidazol-2-yl}methyl)(1H-imidazol-2-ylmethyl)amino]methyl}phenoxy)acetate] | ≤ 3 | – | – | – | – | –
4 | CCOC(=O)CCc1ccc(CN(Cc2ncc[nH]2)Cc2nccn2CCCN2CCC3(CCN(C(CC)CC)CC3)C2)s1 [Example 42(4), Ethyl 3-[5-({[(1-{3-[8-(1-ethylpropyl)-2,8-diazaspiro[4.5]deca-2-yl]propyl}-1H-imidazol-2-yl)methyl](1H-imidazol-2-ylmethyl)amino}methyl)-2-thienyl]propanoate] | 4.4 | – | – | – | – | –
5 | CCC(CC)N1CCC2(CCN(CCCn3ccnc3CN(CCCC(=O)O)Cc3ncc[nH]3)C2)CC1 [Example 25(1), 4-{[(1-{3-[8-(1-ethylpropyl)-2,8-diazaspiro[4.5]deca-2-yl]propyl}-1H-imidazol-2-yl)methyl](1H-imidazol-2-ylmethyl)amino}butanoic acid] | 6.6 | 28.3 | Negative | 0.36 | 16 | Negative
6 | CCOC(=O)CCCn1ccnc1CN(C)Cc1nccn1CCCN1CCC2(CCN(CC(C)C)CC2)C1 [Example 47(4), Ethyl 4-(2-{[({1-[3-(8-isobutyl-2,8-diazaspiro[4.5]deca-2-yl)propyl]-1H-imidazol-2-yl}methyl)(methyl)amino]methyl}-1H-imidazol-1-yl)butanoate] | 4.3 | – | – | – | – | –

Further lines, with some results ahead:

Row | IC50 [1] [nM] | Value of binding response (RU) [2] [RU] | Determination (artificial lipid membrane binding) [2] | Vd [4] [L/kg] | SMILES | Rate of increase of phospholipid accumulation (%) (compound dose: 200 μM) [3] | Determination (phospholipidosis, NBD-PE system) [3]
7 | ≤ 3 | – | – | – | CCOC(=O)COc1ccc(CN(Cc2ncc[nH]2)Cc2nccn2CCCN2CCC3(CCN(C4CCCCC4)CC3)C2)cc1 [Example 40(12), Ethyl (4-{[({1-[3-(8-cyclohexyl-2,8-diazaspiro[4.5]deca-2-yl)propyl]-1H-imidazol-2-yl}methyl)(1H-imidazol-2-ylmethyl)amino]methyl}phenoxy)acetate] | – | –
8 | 13.6 | – | – | – | CCC(CC)N1CCC2(CCN(CCCn3ccnc3CN(Cc3ccc4cc(OCC(=O)O)ccc4c3)Cc3ncc[nH]3)C2)CC1 [Example 43(3), {[6-({[(1-{3-[8-(1-ethylpropyl)-2,8-diazaspiro[4.5]deca-2-yl]propyl}-1H-imidazol-2-yl)methyl](1H-imidazol-2-ylmethyl)amino}methyl)-2-naphthyl]oxy}acetic acid] | – | –
9 | 20.7 | 23.4 | Negative | 1.1 | CC(C)CN1CCC2(CC1)CCN(CCCn1ccnc1CN(Cc1ccc(CC(=O)O)cc1)Cc1ncc[nH]1)C2 [Example 22(4), (4-{[(1H-imidazol-2-ylmethyl)({1-[3-(8-isobutyl-2,8-diazaspiro[4.5]deca-2-yl)propyl]-1H-imidazol-2-yl}methyl)amino]methyl}phenyl)acetic acid] | 16 | Negative
10 | 4.4 | 72.9 | Negative | – | O=C(O)COc1ccc(CN(Cc2ncc[nH]2)Cc2nccn2CCCN2CCC3(CCN(C4CCCCC4)CC3)C2)cc1 [Example 41(6), (4-{[({1-[3-(8-cyclohexyl-2,8-diazaspiro[4.5]deca-2-yl)propyl]-1H-imidazol-2-yl}methyl)(1H-imidazol-2-ylmethyl)amino]methyl}phenoxy)acetic acid] | 16 | Negative
11 | 9.3 | – | – | – | CCC(CC)N1CCC2(CCN(CCCn3ccnc3CN(Cc3cccc(SCC(=O)O)c3)Cc3ncc[nH]3)C2)CC1 [Example 43(2), {[3-({[(1-{3-[8-(1-ethylpropyl)-2,8-diazaspiro[4.5]deca-2-yl]propyl}-1H-imidazol-2-yl)methyl](1H-imidazol-2-ylmethyl)amino}methyl)phenyl]thio}acetic acid] | – | –
12 | 7.4 | – | – | – | COC(=O)Cc1ccc(CN(Cc2ncc[nH]2)Cc2nccn2CCCN2CCC3(CCN(CC(C)C)CC3)C2)cc1 [Example 21(4), Methyl (4-{[(1H-imidazol-2-ylmethyl)({1-[3-(8-isobutyl-2,8-diazaspiro[4.5]deca-2-yl)propyl]-1H-imidazol-2-yl}methyl)amino]methyl}phenyl)acetate] | – | –
13 | 4 | 36.1 | Negative | 0.65 | CCC(CC)N1CCC2(CCN(CCCn3ccnc3CN(Cc3ccc(OCC(=O)O)cc3)Cc3ncc[nH]3)C2)CC1 [Example 43, [4-({[(1-{3-[8-(1-ethylpropyl)-2,8-diazaspiro[4.5]deca-2-yl]propyl}-1H-imidazol-2-yl)methyl](1H-imidazol-2-ylmethyl)amino}methyl)phenoxy]acetic acid] | 16 | Negative
14 | 3 | – | – | – | CCOC(=O)COc1ccc(CN(Cc2ncc[nH]2)Cc2nccn2CCCN2CCC3(CCN(C(CC)CC)CC3)C2)cc1 [Example 42, Ethyl [4-({[(1-{3-[8-(1-ethylpropyl)-2,8-diazaspiro[4.5]deca-2-yl]propyl}-1H-imidazol-2-yl)methyl] (1H-imidazol-2-ylmethyl)amino}methyl)phenoxy]acetate] | – | –
